PMC12598805, “Crystal Structure–Activity Relationship of Some MeO Phenylacrylonitriles: Dual Antimicrobial–Cytotoxic Effects and in Silico Perspectives” (ChemistryOpen, 2025)
Converted amounts (≈) assume the structure as drawn.

What was measured:
Type in all cases: cell-based
[1] = tested on: Pseudomonas aeruginosa (ATCC 27853); test: Broth microdilution MIC; details: ATCC27853, P.aeruginosa
Protocol: (§1) Pseudomonas aeruginosa (ATCC 27853) […]
(§2) ATCC: American Type Culture Collection; NRRL: Northern Regional Research Laboratory The compounds 2(a-c) obtained could only be completely solubilised with dimethyl sulphoxide (DMSO) and the highest possible stock solutions of 50 mg.mL-1 were prepared. […]
(§3) 3.1. Determination of Minimum Inhibition Concentration (MIC)
(§4) The minimum inhibition concentration (MIC) values of the compounds 2(a-c) against the test bacteria used in the study were determined according to the broth microdilution method.[1-2] MHB or SDB was used as test medium and bacterial and yeast suspensions were prepared at 0.5 Mc Farland concentration for each test bacteria. Double layer serial dilutions were prepared in "U" type 96-well microtiter plates. Medium+bacteria suspensions containing only medium in the first row, medium+bacteria in the second row and the final concentrations of the synthesised substances in the other rows between 25 mg.mL-1 and […] were added to the wells with a final volume of 200
(§5) μL. Ampicillin, Kanamycin and Amphotericin B standard antibiotics were used as positive controls.
(§6) Bacteria were incubated at 37±0.1 °C and C. albicans at 30±0.1 °C for 24-48 hours and the lowest concentration without growth was determined as MIC. Tests were performed in two parallel runs and mean values were given as a result. […]

[2] = tested on: Pseudomonas aeruginosa (ATCC 27853); test: MBC by sub-culture from wells without growth; details: ATCC27853, P.aeruginosa
Protocol: as §1, §2, §3, §4, §5
(§7) Bacteria were incubated at 37±0.1 °C and C. albicans at 30±0.1 °C for 24-48 hours and the lowest concentration without growth was determined as MIC. Tests were performed in two parallel runs and mean values were given as a result. In order to estimate “the minimum bactericidal/fungicidal concentrations (MBC/MFC) of the synthesised acrylonitrile derivatives “needed to indicate […] killing of the original inoculum,” 10 μl was taken from the wells with no observed growth and further sub-cultured onto their agar media (MHA and SDA for bacterial and fungal strains, respectively).[3] […]

[3] = tested on: Bacillus cereus (ATCC-10876); test: MBC by sub-culture from wells without growth; details: Bacillus cereus, ATCC10876; B.cereus; read-out: MBC
Protocol: Bacillus cereus (ATCC-10876) […]
as §2, §3, §4, §5, §7

[4] = tested on: Pseudomonas aeruginosa (ATCC 27853); test: Agar diffusion, zone of inhibition; details: P.aeruginosa, compounds at 50 mg mL^−1; for zone of inhibition at 50 mg/mL: Pseudomonas aeruginosa, ATCC27853
Text: (§8) The antibacterial and antifungal activities were reported utilizing the method described by the Clinical & Laboratory Standards Institute.^[ [31], [32] ^] Agar diffusion method was used to determine the antimicrobial activity of the synthesized substances. The media used were mueller hinton agar (MHA) for bacteria and sabouraud‐dextrose agar (SDA) for fungi (Merck), as recommended by the manufacturer.
(§9) The synthesized compounds were initially investigated for their antimicrobial activity to elucidate the potential therapeutic utility against various pathogenic microbes using the agar plate diffusion method. The compounds were tested at a concentration of 50 mg mL^−1, and the antibiotics (ampicillin, kanamycin, and amphotericin B) were used at 5 mg mL^−1. […] K.pneumoniae and B.cereus were resistant to ampicillin, while they were susceptible to kanamycin with inhibition values of 30 and 26 mm, respectively. No antimicrobial activity of the compounds was observed against E.faecalis, S.typhimurium, K.pneumoniae, and for the fungus compared to Amphotericin B (20 mm). […]
as §1
(§10) ATCC: American Type Culture Collection; NRRL: Northern Regional Research Laboratory The compounds 2(a-c) obtained could only be completely solubilised with dimethyl sulphoxide (DMSO) and the highest possible stock solutions of 50 mg.mL-1 were prepared. To these wells 50 μl of the previously prepared substances were transferred using sterile micropipette tips. For comparison, Ampicillin and kanamycin antibiotics for bacteria and Amphotericin B antibiotics for fungus were used as positive controls and DMSO was used as negative control. The prepared petri plates were kept at +4°C for about 1 hour and then the bacterial cultures were incubated at 37°C for 18-24 hours and mould cultures at 27-30°C for 48-72 hours. The zones formed were measured millimetrically with callipers. The experiments were performed with three repetitions. […]

[5] = tested on: Escherichia coli (ATCC 25922); test: MBC by sub-culture from wells without growth; details: ATCC25922, E.coli
Protocol: (§11) Escherichia coli (ATCC 25922) […]
as §2, §3, §4, §5, §6

[6] = tested on: Escherichia coli (ATCC 25922); test: Agar diffusion, zone of inhibition; details: compounds at 50 mg mL^−1; for zone of inhibition: E.coli; for zone of inhibition at 50 mg/mL: Escherichia coli, ATCC25922, E.coli
Text: as §8, §9, §11, §10

Compound	MIC [1]	MBC [2]	MBC [3]	zone of inhibition [4]	zone of inhibition at 50 mg/mL [4]	MBC [5]	zone of inhibition [6]	zone of inhibition at 50 mg/mL [6]
COc1ccc(C=C(C#N)c2ccccc2)cc1 [2a, 3‐(4‐methoxyphenyl)‐2‐phenylacrylonitrile]	5 mg/mL (≈ 21.3 mM)	5 mg/mL (≈ 21.3 mM)	12.5 mg/mL (≈ 53.1 mM)	13 ± 1.41 mm	13 mm	5 mg/mL (≈ 21.3 mM)	13 ± 0.71 mm	13 mm
COc1ccc(/C=C(\C#N)c2ccc(F)cc2)cc1 [2b]	12.5 mg/mL (≈ 49.4 mM)	12.5 mg/mL (≈ 49.4 mM)	12.5 mg/mL (≈ 49.4 mM)	12 ± 0.71 mm	12 mm		12 ± 1.41 mm	12 mm
COc1ccc(/C=C(\C#N)c2cc(C(F)(F)F)cc(C(F)(F)F)c2)cc1 [2c]	12.5 mg/mL (≈ 33.7 mM)	12.5 mg/mL (≈ 33.7 mM)	12.5 mg/mL (≈ 33.7 mM)	15 ± 0.71 mm	15 mm		13 ± 0 mm	13 mm
